Where a name gives a salt, the structure may show the parent alone.
Key:
Experiment in all cases: Binding inhibition of 125I-somatostatin, CHO cell membrane fraction
[1] = target: T1, human somatostatin receptor SSTR2 (Homo sapiens, UniProt P30874); details: 125I-somatostatin binding, 25° C. for 60 minutes, read-out: Activities for human somatostatin receptor (IC50 value) SSTR2
T1 construct: expressed in transfected cells; host or cells: CHO (dhfr-) cells, strain SSTR2-HS5-9
Experimental: (§1) A human somatostatin receptor expression CHO cell strain, SSTR1-8-3, SSTR2-HS5-9, SSTR3-15-19, SSTR4-1-2 or SSTR5-32-4 (10^9), was suspended in a phosphate buffered saline containing 5mM of EDTA (PBS-EDTA). The suspension was centrifuged. To the cell pellet was added 10 ml of a homogenation buffer solution for cells (10 mM NaHCO3, 5 mM EDTA, pH=7.5). The mixture was homogenized by a Politron homogenizer and centrifuged at 400×g for 15 minutes. The supernatant obtained was farther centrifuged at 100,000×g for an hour to obtain a precipitate of the membrane fraction. The precipitate was suspended in 2 ml of a buffer solution for assay ([…], 0.1% of BSA (bovine serum albumin) and […], 1 μ/ml of pepstatin, 20 μg/ml of leupeptin, 10 μg/ml of phosphoramide, pH=7.5). The suspension was centrifuged at […] for an hour. The membrane fraction recovered as precipitate was suspended again in 20 ml of buffer solution for assay. The suspension was placed in tubes and stored at −80° C. The suspension was thawed when used, and used at every use.
(§2) The membrane fraction prepared in Example 1 was diluted with a buffer solution for assay to adjust the concentration to 3 μg/ml. The diluate was placed in tubes each in quantity of 173 μl. To this were simultaneously added 2 μl of a solution of a compound in DMSO and 25μl of a 200pM radioisotope-labeled somatostatin (^125I-somatostatin: Amersham) solution. For measurement of the maximum binding, a reaction mixture added with 2 μl of DMSO and 25μl of a 200pM ^125I-somatostatin solution was prepared. For measurement of non-specific binding, a reaction mixture added with 2 μl of a 100 μM somatostatin solution diluted in DMSO and 25 μl of a 200pM ^125I-somatostatin solution was prepared at the same time. The mixtures were allowed to react at 25° C. for 60 minutes. Then, the reaction mixture was filtered by aspiration using a GF/B glass fiber filter paper (Whatman) treated with polyethylenimine. After filtration, the radioactivity of 125I-somatostatin remaining on the filter paper was measured by a γ-counter.
(§3) The binding rate (%) of each compound was calculated by the formula: […]
(§4) (where PBM: Percent maximum Binding, B: radioactivity when a compound was added, Bo: maximum binding radioactivity, NSB: non-specific binding radioactivity). The binding rates were calculated by changing the concentrations of the compound to obtain the 50% inhibiting concentration of the compound (IC50 value) by the Hil l plots.
(§5) The activities (IC50 value, μM) of the compounds for each human somatostatin receptor obtained by the above method are shown in the following Table 5.

[2] = target: T2, human somatostatin receptor SSTR5 (Homo sapiens, UniProt P35346); details: 125I-somatostatin binding, 25° C. for 60 minutes, read-out: Activities for human somatostatin receptor (IC50 value) SSTR5
T2 construct: expressed in transfected cells; host or cells: CHO (dhfr-) cells, strain SSTR5-3-2-4 (also printed SSTR5-32-4)
Experimental: as §1, §2, §3, §4, §5

[3] = target: T3, human somatostatin receptor SSTR3 (Homo sapiens, UniProt P32745); details: 125I-somatostatin binding, 25° C. for 60 minutes, read-out: Activities for human somatostatin receptor (IC50 value) SSTR3
T3 construct: expressed in transfected cells; host or cells: CHO (dhfr-) cells, strain SSTR3-15-19
Experimental: as §1, §2, §3, §4, §5

[4] = target: T4, human somatostatin receptor SSTR1 (Homo sapiens, UniProt P30872); details: 125I-somatostatin binding, 25° C. for 60 minutes, read-out: Activities for human somatostatin receptor (IC50 value) SSTR1
T4 construct: expressed in transfected cells; host or cells: CHO (dhfr-) cells, strain SSTR1-8-3
Experimental: as §1, §2, §3, §4, §5

[5] = target: T5, human somatostatin receptor SSTR4 (Homo sapiens, UniProt P31391); details: 125I-somatostatin binding, 25° C. for 60 minutes, read-out: Activities for human somatostatin receptor (IC50 value) SSTR4
T5 construct: expressed in transfected cells; host or cells: CHO (dhfr-) cells, strain SSTR4-1-2
Experimental: as §1, §2, §3, §4, §5

T1 sequence (P30874 whole entry): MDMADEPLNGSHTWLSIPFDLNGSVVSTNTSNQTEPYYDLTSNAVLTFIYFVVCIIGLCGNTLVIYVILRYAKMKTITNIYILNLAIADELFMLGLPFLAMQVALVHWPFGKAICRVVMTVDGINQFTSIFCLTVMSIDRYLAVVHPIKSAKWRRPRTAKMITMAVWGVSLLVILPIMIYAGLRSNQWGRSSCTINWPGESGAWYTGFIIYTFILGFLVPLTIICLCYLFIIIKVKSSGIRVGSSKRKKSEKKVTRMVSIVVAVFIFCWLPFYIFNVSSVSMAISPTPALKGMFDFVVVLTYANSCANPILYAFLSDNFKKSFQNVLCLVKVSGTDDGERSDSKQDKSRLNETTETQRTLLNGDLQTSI
T4 sequence (P30872 whole entry): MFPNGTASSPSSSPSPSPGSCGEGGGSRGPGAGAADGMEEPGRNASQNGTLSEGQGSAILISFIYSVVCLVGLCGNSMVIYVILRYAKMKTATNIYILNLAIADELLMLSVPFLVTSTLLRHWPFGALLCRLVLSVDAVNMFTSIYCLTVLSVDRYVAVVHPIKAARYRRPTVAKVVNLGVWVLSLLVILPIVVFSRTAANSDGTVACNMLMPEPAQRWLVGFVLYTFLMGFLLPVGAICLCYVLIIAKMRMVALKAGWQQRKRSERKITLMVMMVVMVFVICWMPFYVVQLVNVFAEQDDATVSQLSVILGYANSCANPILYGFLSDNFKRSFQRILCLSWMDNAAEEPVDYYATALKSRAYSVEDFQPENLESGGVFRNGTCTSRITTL
T3 sequence (P32745 whole entry): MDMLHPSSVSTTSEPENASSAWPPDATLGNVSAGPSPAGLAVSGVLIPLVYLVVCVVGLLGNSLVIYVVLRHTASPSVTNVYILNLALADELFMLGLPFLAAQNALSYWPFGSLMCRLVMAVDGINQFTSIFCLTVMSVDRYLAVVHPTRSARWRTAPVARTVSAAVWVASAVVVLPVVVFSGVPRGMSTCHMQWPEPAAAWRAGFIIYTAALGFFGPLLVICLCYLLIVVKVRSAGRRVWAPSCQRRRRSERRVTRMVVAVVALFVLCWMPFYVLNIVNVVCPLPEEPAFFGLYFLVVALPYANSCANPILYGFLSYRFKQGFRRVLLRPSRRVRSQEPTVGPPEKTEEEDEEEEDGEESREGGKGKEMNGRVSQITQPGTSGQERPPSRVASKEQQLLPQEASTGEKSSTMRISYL
T5 sequence (P31391 whole entry): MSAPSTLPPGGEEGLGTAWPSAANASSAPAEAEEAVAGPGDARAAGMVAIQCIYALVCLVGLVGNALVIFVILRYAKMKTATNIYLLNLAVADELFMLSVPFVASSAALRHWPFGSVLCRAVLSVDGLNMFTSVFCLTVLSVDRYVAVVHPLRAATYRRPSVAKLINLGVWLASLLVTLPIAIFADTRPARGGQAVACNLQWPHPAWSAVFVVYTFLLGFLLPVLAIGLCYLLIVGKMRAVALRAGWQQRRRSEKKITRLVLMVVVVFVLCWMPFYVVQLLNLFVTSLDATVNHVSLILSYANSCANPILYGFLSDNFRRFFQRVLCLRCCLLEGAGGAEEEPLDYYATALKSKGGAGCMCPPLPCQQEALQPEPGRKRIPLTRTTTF
T2 sequence (P35346 whole entry): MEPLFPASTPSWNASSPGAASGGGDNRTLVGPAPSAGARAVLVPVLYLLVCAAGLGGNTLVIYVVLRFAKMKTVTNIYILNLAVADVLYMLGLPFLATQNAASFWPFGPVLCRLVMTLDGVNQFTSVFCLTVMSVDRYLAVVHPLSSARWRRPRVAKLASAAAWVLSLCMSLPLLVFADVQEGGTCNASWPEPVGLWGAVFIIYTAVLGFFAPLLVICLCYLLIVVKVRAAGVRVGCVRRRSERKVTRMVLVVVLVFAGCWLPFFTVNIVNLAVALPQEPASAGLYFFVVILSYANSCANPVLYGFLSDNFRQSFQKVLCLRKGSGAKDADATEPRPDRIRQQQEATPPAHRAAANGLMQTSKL

Row | Compound | IC50 [1] | IC50 [2] | IC50 [3] | IC50 [4] | IC50 [5]
1 | CC(C)(C)CN1C(=O)[C@H](CC(=O)NCc2ccccc2F)O[C@@H](c2cccc(CN)c2)c2cc(Cl)ccc21 [Example 25, (3S,5S)-N-(2-fluorobenzyl)-5-(3-aminomethylphenyl)-7-chloro-1-neopentyl-2-oxo-1,2,3,5-tetrahydro-4,1-benzoxazepine-3-acetamide•monohydrochloride] | 6 µM | 0.007 µM | 0.3 µM | 8 µM | 4 µM
2 | CC(C)(C)CN1C(=O)[C@@H](CC(=O)NCc2ccccc2F)O[C@H](c2cccc(CN)c2)c2cc(Cl)ccc21 [Example 26, (3R,5R)-N-(2-fluorobenzyl)-5-(3-aminomethylphenyl)-7-chloro-1-neopentyl-2-oxo-1,2,3,5-tetrahydro-4,1-benzoxazepine-3-acetamide•monohydrochloride] | > 10 µM | 0.6 µM | 7 µM | 10 µM | 4 µM

Second part, the compound after the results:

Row | IC50 [1] | IC50 [2] | IC50 [3] | IC50 [4] | IC50 [5] | Compound
3 | > 1 µM | 0.007 µM | 0.04 µM | > 1 µM | 1 µM | COc1ccc(CN2C(=O)C(CC(=O)NCc3ccccc3F)OC(c3ccc(CN)s3)c3cc(Cl)ccc32)cc1 (stereo not drawn) [Example 91, 3,5-Trans-N-(2-fluorobenzyl)-5-(2-aminomethylthiophen-5-yl)-7-chloro-1-(4-methoxybenzyl)-2-oxo-1,2,3,5-tetrahydro-4,1-benzoxazepine-3-acetamide•monohydrochloride]
4 | 0.8 µM | 0.001 µM | 0.02 µM | 0.8 µM | 0.3 µM | NCc1ccc(C2OC(CC(=O)NCc3ccccc3F)C(=O)N(Cc3ccc(-c4ccccc4)cc3)c3ccc(Cl)cc32)cc1 (stereo not drawn) [Example 87, 3,5-Trans-N-(2-fluorobenzyl)-5-(4-aminomethylphenyl)-1-(4-biphenylmethyl)-7-chloro-2-oxo-1,2,3,5-tetrahydro-4,1-benzoxazepine-3-acetamide•monohydrochloride]
5 | 0.5 µM | 0.009 µM | 0.004 µM | 0.9 µM | 0.2 µM | CC(C)(N)c1cccc(C2OC(CC(=O)NCc3ccccc3F)C(=O)N(Cc3ccc(-c4ccccc4)cc3)c3ccc(Cl)cc32)c1 (stereo not drawn) [Example 93, 3,5-Trans-N-(2-fluorobenzyl)-5-[3-[(1-amino-1-methyl)ethyl]phenyl]-1-(4-biphenylmethyl)-7-chloro-2-oxo-1,2,3,5-tetrahydro-4,1-benzoxazepine-3-acetamide•monohydrochloride]

— US6352982B1, “4,1-benzoxazepines, their analogues, and their use as somatostatin agonists” (Takeda Chemical Industries, Ltd., priority 1997, dated 2002)
